# In PMC6610884 (Journal of medicinal chemistry, 2018):
# pEC50: −log10 of the molar value. Several values for one entry are separate records, joined by “and”; a condition that tells them apart may be missing. Identical values can stand only once. Like-named read-outs stand apart in the source and are kept apart here.
# Experiments:
# P. berghei blood stages = conditions: Pb-infected mice, single oral 50 mg/kg dose 1 day PI, compared to untreated animals
# P. berghei liver stages [1] = format: in vivo, Plasmodium berghei; conditions: liver stage model, mice
# Plasmodium cynomolgi = conditions: rhesus monkeys; cited from earlier work
# P. falciparum TM90-C2B = conditions: RI = EC50(TM90-C2B)/EC50(W2); cited from earlier work
# P. berghei liver stages [2] = conditions: read-out: liver stage activity; cited from earlier work
# [3] = single dose 50 mg/kg subcutaneous
structure (smiles),measurement,setting,value
"COC(=O)c1c[nH]c2cc(CN3CCN(c4ccc(C(F)(F)F)cc4)CC3)c(OC)cc2c1=O [8ab, Methyl 6-Methoxy-4-oxo-7-((4-(4-(trifluoromethyl)phenyl)-piperazin-1-yl)methyl)-1,4-dihydroquinoline-3-carboxylate]",% inhibition day 6 PI,P. berghei blood stages,completely inhibited parasite growth
"COC(=O)c1c[nH]c2cc(CN3CCN(c4ccc(C(F)(F)F)cc4)CC3)c(C)cc2c1=O [8v, Methyl 6-Methyl-4-oxo-7-((4-(4-(trifluoromethyl)phenyl)-piperazin-1-yl)methyl)-1,4-dihydroquinoline-3-carboxylate]",% inhibition day 6 PI,P. berghei blood stages,completely inhibited parasite growth
"COC(=O)c1c[nH]c2cc(CN3CCN(Cc4ccc(OC)cc4)CC3)ccc2c1=O [8l, Methyl 7-((4-(4-Methoxybenzyl)piperazin-1-yl)methyl)-4-oxo-1,4-dihydroquinoline-3-carboxylate]",no. of cures,P. berghei liver stages [1]; single dose 25 mg/kg oral,0/5
same,no. of cures,P. berghei liver stages [1]; single dose 50 mg/kg oral,0/5
same,no. of cures,P. berghei liver stages [1]; [3],0/5
same,no. of cures,"P. berghei liver stages [1]; single dose 100 mg/kg oral, 100 mg/kg",one of five and 1/5
"Cc1[nH]c2cc(CN3CCN(c4ccc(F)cc4)CC3)ccc2c(=O)c1Br [8an, 3-Bromo-7-((4-(4-Fluorophenyl)piperazin-1-yl)methyl)-2-methylquinolin-4(1H)-one]",% inhibition day 6 PI,P. berghei blood stages,completely inhibited parasite growth
"COC(=O)c1c[nH]c2cc(CN3CCN(c4ccc(C(F)(F)F)cc4)CC3)ccc2c1=O [8p, Methyl 4-Oxo-7-((4-(4-(trifluoromethyl)phenyl)piperazin-1-yl)-methyl)-1,4-dihydroquinoline-3-carboxylate]",% inhibition day 6 PI,P. berghei blood stages,completely inhibited parasite growth
"COC(=O)c1c[nH]c2cc(CN3CCN(c4ccccc4)CC3)ccc2c1=O [8j, Methyl 4-Oxo-7-((4-phenylpiperazin-1-yl)methyl)-1,4-dihydroquinoline-3-carboxylate]",no. of cures,P. berghei liver stages [1]; single dose 25 mg/kg oral,2/5
same,no. of cures,P. berghei liver stages [1]; single dose 50 mg/kg oral,2/5
same,no. of cures,P. berghei liver stages [1]; [3],3/5
same,no. of cures,P. berghei liver stages [1]; single dose 100 mg/kg oral,5/5
CCCCc1cc2c(=O)c(C(=O)OCC)c[nH]c2cc1OCCOc1ccccc1 [compound 1],radical cure (eradication of dormant exoerythrocytic stages),Plasmodium cynomolgi,radical cures
"CCCCc1cc2c(=O)c(Br)c(C)[nH]c2cc1OCCOc1ccccc1 [compound 2, 3-bromo-6-butyl-2-methyl-7-(2-phenoxyethoxy)quinolin-4(1H)-one]",resistance index (RI),P. falciparum TM90-C2B,4.7
same,pEC50,P. berghei liver stages [2],8.67
